How the values were obtained:
Format in all cases: physicochemical
[1] = Antioxidant activity assessed as protection against Cu2+/GSH-induced DNA oxidation at 150 uM up to 180 mins by TBARS method; conditions: 3 h
[2] = Antioxidant activity assessed as OH-induced DNA oxidation at 150 uM by TBARS method
[3] = Antioxidant activity assessed as inhibition time period for protection against AAPH-induced DNA oxidation at 37 degC by TBARS method

inhibition (INH) [1]	Activity [2] [%]	Time [3] [min]	SMILES
Active	78.8	0.82	O=C(O)c1cc2ccc(O)cc2oc1=O
Active	86.5	2.92	COc1cc2cc(C(=O)O)c(=O)oc2cc1O
Not Active	76.4	1.28	O=C(NCCc1ccc(O)cc1)c1cc2ccccc2oc1=O
Not Active	75.3	–	O=C(NCCc1ccccc1)c1cc2ccc(O)cc2oc1=O
Not Active	71.5	–	O=C(NCCc1ccc(O)cc1)c1cc2ccc(O)cc2oc1=O
Not Active	73.6	1.61	COc1cc2cc(C(=O)NCCc3ccccc3)c(=O)oc2cc1O
Not Active	68.1	7.43	COc1cc2cc(C(=O)NCCc3ccc(O)cc3)c(=O)oc2cc1O
Active	72.9	–	O=C(NCCc1ccccc1)c1cc2ccccc2oc1=O
Active	82.6	–	O=C(O)c1cc2ccccc2oc1=O [COUMARIN-3-CARBOXYLIC ACID]
